Laboratory results as given in publication PMC7591920, “A protein tertiary structure mimetic modulator of the Hippo signalling pathway” (Nature Communications, 2020).
Bridge positions count the residues as written; N and C are the ends. Square brackets hold non-standard residues; d marks the D form. Peptide text beside a SMILES is read from it. Orn = NCCC[C@H](N)C(=O)O

How the values were obtained:
mTEAD4 [1] = biological target: T1, mTEAD4 (Mus musculus, UniProt Q62296); test: SPR binding to immobilised mTEAD4; settings: mTEAD4 amine-coupled on CM5, multi-cycle, steady-state fit 1:1 model, 10 mM HEPES 150 mM NaCl 0.05% Tween-20 pH 7.4, 0.3% DMSO, 20 °C, Fig. 1 values n = 1 replicate
T1 construct: Mouse TEAD4(210–427) cDNA fused with a 6x His-tag and a 3C protease cleavage site; 6x His-tag; 3C protease cleavage site; made in house; host or cells: E. coli BL21 DE3 RIL(K+)
Experimental: (§1) Sensor chips Series S CM5 (Research grade) were obtained from GE Healthcare. Prior to use, the sensor chips were equilibrated at room temperature for 15 min to prevent water condensation on the detector side of the sensor chip surface. A running buffer was prepared composed of 10 mM HEPES, 150 mM NaCl, and 0.05% (w/v) Tween-20, pH 7.4, and the system was equilibrated at 20 °C using a flow rate of 30 µL min^−1 after docking of the sensor chip. Ligand binding experiments have been performed applying the concept of multi-cycle kinetics. A contact time of 45 s was selected, followed by a 6-min dissociation phase to allow for complete dissociation of the analyte prior to the next cycle. […] Typically, seven concentrations of the analytes have been examined applying a threefold dilution pattern with 30 µM as top concentration. For the analysis, five running buffer blanks were injected to equilibrate the instrument. […] The carboxyl-dextran surface was activated for 7 min with 0.05 M NHS and 0.2 M EDC, followed by an injection of the proteins in 10 mM MES pH 6.4 at a concentration of 30–50 µg mL^−1. […] This was followed by a deactivation of the residual esters by injecting a solution of 0.5 M ethanolamine pH 8.0 for 7 min before engaging in ligand binding experiments. Reference surfaces were prepared accordingly, omitting the injection of protein over the activated reference surface.

GST-hTEAD1 = biological target: T2, GST-hTEAD1 (Homo sapiens, UniProt P28347); test: SPR binding to immobilised GST-hTEAD1; settings: GST-hTEAD1 amine-coupled on CM5, multi-cycle, steady-state fit 1:1 model, 10 mM HEPES 150 mM NaCl 0.05% Tween-20 pH 7.4, 0.3% DMSO, 20 °C, Fig. 1 values n = 1 replicate
T2 construct: CDNA of hTEAD1(209–426) fused with an N-terminal GST tag; made in house; host or cells: Escherichia coli BL21 DE3 RIL(K+)
Experimental: as §1

mTEAD4 [2] = biological target: T1, mTEAD4; test: Competition fluorescence polarization with mTEAD4 (alanine scan); type: binding; settings: Ac-peptide vs FITC-labelled tracer peptide 10 nM, mTEAD4 400 nM, 1 h
Experimental: Competition FP: N-terminally acetylated peptides were diluted 1:1 in a 384-well plate (5 μL, 75 μM−9 pM). Ten microlitres of a mixture (1:1) of mTEAD4 and FITC-labelled peptide was added (final concentrations: acetylated peptides = 50 μM−6 pM; mTEAD4 protein = 400 nM; FITC-labelled tracer peptide = 10 nM). After 1 h, FP was measured (λ(ex) = […]). IC50 was determined from the binding curve with GraphPad from Prism.

[3] = test system: primary juvenile (P5–P6) rat cardiomyocytes; test: Cell cycle activity assay (Ki67/αActinin) in juvenile rat cardiomyocytes; type: cell-based; settings: c = 10 µM, 4 days, relative to DMSO-treated cells (100), mean of N = 6
Experimental: One day after seeding, the cells were treated with test compounds of interest. Treatments were applied with an ECHO 520 acoustic dispenser (Labcyte) and medium was added to the wells. Four days after treatment, the cells were fixed with 4% formaldehyde (Roth) and immunostained in 0.2% Triton-X100 (Roth) in PBS (Gibco) supplemented with 5% FBS. […] Samples were then imaged and analysed on an ImageXpress XL automated microscope (Molecular Devices). Data are depicted as means ± SEM.

rat heart cells = test: Cell toxicity assessment on rat heart cells in culture; settings: c(peptide) = 10 µM
Experimental: whole heart cells monitored by fluorescence microscopy after 90 minutes treatments (scale bar: 25 µm), number of […]
4E as well as control compounds (SB203580, CHIR99021) on rat heart cells in culture (c(peptide) = 10 µM). Number of independent biological replicates: n = 6, error bars = SEM. […]
cytometry analysis of live cells after 90 min incubation at 5 µM: Representative histogram plot, (-) DMSO control). Source data are provided as a Source Data file.
(1 picture or pasted object on this page, not shown here)

T1 sequence (Q62296 210-427): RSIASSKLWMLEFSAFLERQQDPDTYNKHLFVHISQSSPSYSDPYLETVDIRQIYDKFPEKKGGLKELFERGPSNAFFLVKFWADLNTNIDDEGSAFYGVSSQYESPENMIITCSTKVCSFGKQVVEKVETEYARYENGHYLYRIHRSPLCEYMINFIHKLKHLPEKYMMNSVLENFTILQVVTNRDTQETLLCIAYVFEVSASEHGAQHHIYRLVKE
T2 sequence (P28347 209-426): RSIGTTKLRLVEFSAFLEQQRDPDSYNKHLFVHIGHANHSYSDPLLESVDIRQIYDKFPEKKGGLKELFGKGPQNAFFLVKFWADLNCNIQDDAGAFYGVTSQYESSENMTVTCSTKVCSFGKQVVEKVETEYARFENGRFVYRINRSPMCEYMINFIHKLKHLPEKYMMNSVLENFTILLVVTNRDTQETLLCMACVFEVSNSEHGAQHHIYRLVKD

Structure (SMILES)	Kd (mTEAD4 [1]) [µM]	Kd (GST-hTEAD1) [µM]	also measured
CC[C@H](C)[C@@H]1NC(=O)[C@H](CCC(N)=O)NC(=O)[C@H](CC(C)C)NC(=O)[C@H](Cc2c[nH]c3ccccc23)NC(=O)[C@H]([C@@H](C)O)NC(=O)[C@H](CC(=O)O)NC(=O)CNC(=O)[C@H](CC(C)C)NC(=O)[C@H](C)NC(=O)[C@H](CCCCN)NC(=O)[C@H](C)NC(=O)[C@H](Cc2ccccc2)NC(=O)[C@H](C)NC(=O)[C@H](CC(=O)O)NC(=O)[C@@H](NC(=O)[C@@H](NC(=O)[C@H](CO)NC(C)=O)C(C)C)CCC(=O)NCCCC[C@@H](C(=O)N[C@@H](C)C(=O)N[C@@H](C)C(N)=O)NC1=O [compound 17] (Ac-SVEDAFAKALGDTWLQIKAA-NH2; lactam 3-18)	> 100	> 100	IC50 (mTEAD4 [2]): > 100 µM
C[S+]([O-])c1ccc(-c2nc(-c3ccncc3)c(-c3ccc(F)cc3)[nH]2)cc1 (centres unmarked) [SB203580, reference compound]			Cell cycle activity, MEAN [3]: 122.95
CC[C@H](C)[C@@H]1NC(=O)[C@H](CCC(N)=O)NC(=O)[C@H](CC(C)C)NC(=O)[C@H](Cc2c[nH]c3ccccc23)NC(=O)[C@H]([C@@H](C)O)NC(=O)[C@H](CC(=O)O)NC(=O)CNC(=O)[C@H](CC(C)C)NC(=O)[C@H](C)NC(=O)[C@H](C)NC(=O)[C@H](C)NC(=O)[C@H](Cc2ccccc2)NC(=O)[C@H](Cc2c[nH]cn2)NC(=O)[C@H](CC(=O)O)NC(=O)[C@@H](NC(=O)[C@@H](NC(=O)[C@H](CO)NC(C)=O)C(C)C)CCC(=O)NCCCC[C@@H](C(=O)N[C@@H](C)C(=O)N[C@@H](C)C(N)=O)NC1=O [compound 19] (Ac-SVEDHFAAALGDTWLQIKAA-NH2; lactam 3-18)		1.7 ± 0.01	
CC[C@H](C)[C@H](NC(=O)[C@H](CCC(N)=O)NC(=O)[C@H](CC(C)C)NC(=O)[C@H](Cc1c[nH]c2ccccc12)NC(=O)[C@@H](NC(=O)[C@H](CC(=O)O)NC(=O)CNC(=O)[C@H](CC(C)C)NC(=O)[C@H](C)NC(=O)[C@H](CCCCN)NC(=O)[C@H](C)NC(=O)[C@H](Cc1ccccc1)NC(=O)[C@H](Cc1c[nH]cn1)NC(=O)[C@H](CC(=O)O)NC(=O)[C@H](CC(=O)O)NC(=O)[C@@H](NC(=O)[C@H](CO)NC(C)=O)C(C)C)[C@@H](C)O)C(=O)N[C@@H](C)C(=O)N[C@@H](C)C(=O)N[C@@H](C)C(N)=O [compound 13] (Ac-SVDDHFAKALGDTWLQIAAA-NH2)	12	17	
CC[C@H](C)[C@H](NC(=O)[C@H](CO)NC(=O)[C@@H](NC(=O)[C@H](CO)NC(=O)[C@H](CC(N)=O)NC(=O)[C@@H]1CCCN1C(=O)[C@H](C)NC(=O)[C@@H]1CCCN1C(=O)[C@H](CCC(=O)O)NC(=O)[C@@H]1CCCN1C(=O)[C@H](CCC(=O)O)NC(=O)[C@H](CCCCN)NC(C)=O)C(C)C)C(=O)N[C@H](C(=O)NCC(N)=O)[C@@H](C)O [compound 3] (Ac-KEPEPAPNSVSITG-NH2)	> 100	> 100	
CC[C@H](C)[C@@H]1NC(=O)[C@H](CCC(N)=O)NC(=O)[C@H](CC(C)C)NC(=O)[C@H](Cc2c[nH]c3ccccc23)NC(=O)[C@H](C)NC(=O)[C@H](CC(=O)O)NC(=O)CNC(=O)[C@H](CC(C)C)NC(=O)[C@H](C)NC(=O)[C@H](CCCCN)NC(=O)[C@H](C)NC(=O)[C@H](Cc2ccccc2)NC(=O)[C@H](Cc2c[nH]cn2)NC(=O)[C@H](CC(=O)O)NC(=O)[C@@H](NC(=O)[C@@H](NC(=O)[C@H](CO)NC(C)=O)C(C)C)CCC(=O)NCCCC[C@@H](C(=O)N[C@@H](C)C(=O)N[C@@H](C)C(N)=O)NC1=O [compound 22] (Ac-SVEDHFAKALGDAWLQIKAA-NH2; lactam 3-18)	113 ± 3.5		IC50 (mTEAD4 [2]): > 100 µM
CC[C@H](C)[C@@H]1NC(=O)[C@H](CCC(N)=O)NC(=O)[C@H](CC(C)C)NC(=O)[C@H](Cc2c[nH]c3ccccc23)NC(=O)[C@H]([C@@H](C)O)NC(=O)[C@H](CC(=O)O)NC(=O)CNC(=O)[C@H](CC(C)C)NC(=O)[C@H](C)NC(=O)[C@H](CCCCN)NC(=O)[C@H](C)NC(=O)[C@H](Cc2ccccc2)NC(=O)[C@H](Cc2c[nH]cn2)NC(=O)[C@H](CC(=O)O)NC(=O)[C@@H](NC(=O)[C@@H](NC(=O)[C@H](C)NC(C)=O)C(C)C)CCC(=O)NCCCC[C@@H](C(=O)N[C@@H](C)C(=O)N[C@@H](C)C(N)=O)NC1=O [compound 14] (Ac-AVEDHFAKALGDTWLQIKAA-NH2; lactam 3-18)		1.5 ± 0.02	
Cc1c[nH]c(-c2cnc(NCCNc3ccc(C#N)cn3)nc2-c2ccc(Cl)cc2Cl)n1 [CHIR99021, reference compound]			Cell cycle activity, MEAN [3]: 152.398; Total cell number (% DMSO control) (rat heart cells; raw data replicate 1): 164.318 % DMSO control; Total cell number (% DMSO control) (rat heart cells; raw data replicate 2): 154.314 % DMSO control; Total cell number (% DMSO control) (rat heart cells; raw data replicate 3): 186.382 % DMSO control; Total cell number (% DMSO control) (rat heart cells; raw data replicate 4): 116.435 % DMSO control; Total cell number (% DMSO control) (rat heart cells; raw data replicate 5): 128.897 % DMSO control; Total cell number (% DMSO control) (rat heart cells; raw data replicate 6): 164.042 % DMSO control
CC[C@H](C)[C@H](NC(=O)[C@H](CCC(N)=O)NC(=O)[C@H](CC(C)C)NC(=O)[C@H](Cc1c[nH]c2ccccc12)NC(=O)[C@@H](NC(=O)[C@H](CC(=O)O)NC(C)=O)[C@@H](C)O)C(=O)N[C@@H](CCCCN)C(=O)N[C@@H](C)C(=O)N[C@@H](C)C(N)=O [compound 6] (Ac-DTWLQIKAA-NH2)	> 100	> 100	
CC(=O)N[C@@H](CC(=O)O)C(=O)N1CCC[C@H]1C(=O)N[C@H](C(=O)N[C@H](C(=O)N[C@@H](CCC(=O)O)C(=O)N[C@@H](CCC(=O)O)C(=O)N[C@@H](Cc1c[nH]cn1)C(=O)N[C@@H](Cc1ccccc1)C(=O)N[C@@H](CCCNC(=N)N)C(=O)N[C@@H](CCCNC(=N)N)C(=O)N[C@@H](CO)C(=O)N[C@@H](CC(C)C)C(=O)NCC(=O)N[C@@H](CCCCN)C(=O)N[C@@H](CC(N)=O)C(=O)N[C@@H](Cc1ccc(O)cc1)C(N)=O)C(C)C)C(C)C [compound 2] (Ac-DPVVEEHFRRSLGKNY-NH2)	21.8	19.4	
CC[C@H](C)[C@@H]1NC(=O)[C@H](CCC(N)=O)NC(=O)[C@H](CC(C)C)NC(=O)[C@H](C)NC(=O)[C@H]([C@@H](C)O)NC(=O)[C@H](CC(=O)O)NC(=O)CNC(=O)[C@H](CC(C)C)NC(=O)[C@H](C)NC(=O)[C@H](CCCCN)NC(=O)[C@H](C)NC(=O)[C@H](Cc2ccccc2)NC(=O)[C@H](Cc2c[nH]cn2)NC(=O)[C@H](CC(=O)O)NC(=O)[C@@H](NC(=O)[C@@H](NC(=O)[C@H](CO)NC(C)=O)C(C)C)CCC(=O)NCCCC[C@@H](C(=O)N[C@@H](C)C(=O)N[C@@H](C)C(N)=O)NC1=O [compound 23] (Ac-SVEDHFAKALGDTALQIKAA-NH2; lactam 3-18)	15 ± 0.85		IC50 (mTEAD4 [2]): > 50 µM
CC[C@H](C)[C@@H]1NC(=O)[C@H](CCC(N)=O)NC(=O)[C@H](CC(C)C)NC(=O)[C@H](Cc2c[nH]c3ccccc23)NC(=O)[C@H]([C@@H](C)O)NC(=O)[C@H](CC(=O)O)NC(=O)CNC(=O)[C@H](CC(C)C)NC(=O)[C@H](C)NC(=O)[C@H](CCCCN)NC(=O)[C@H](C)NC(=O)[C@H](Cc2ccccc2)NC(=O)[C@H](Cc2c[nH]cn2)NC(=O)[C@H](CC(=O)O)NC(=O)[C@@H](NC(=O)[C@@H](NC(=O)[C@H](CO)NC(C)=O)C(C)C)CCC(=O)NCCC[C@@H](C(=O)N[C@@H](C)C(=O)N[C@@H](C)C(N)=O)NC1=O [4D] (Ac-SVEDHFAKALGDTWLQI[Orn]AA-NH2; lactam 3-18)		1.5	
